# Test results published in patent publication US20130171263A1, “Snake Powder Extract For Treatment Of Cancer” (priority 2006, published 2013).
# Key:
# [1] = system: Artemia salina; experiment: Brine shrimp lethality assay; format: in vivo; conditions: 24 h, nauplii
# Description: The eggs of brine shrimp, Airtime salina (Leach), are used in monitoring bioactive compounds. The eggs are readily available in pet shops at low cost and remain viable for years in the dry state. The brine shrimp assay has advantages of being rapid (24 hrs), inexpensive, and simple. No aseptic techniques are required. It easily utilizes a large number of organisms for statistical validation and requires no special equipment and a relatively small amount of sample.
# The assay was carried out with Artemia salina eggs. 50 mg of Artemia salina eggs in a beaker containing sea salt (6 g), yeast (0.9 mg) and distilled water (150 ml) were incubated at 27-28° C. for 24 hrs. The newly hatched nauplii were concentrated. From this volume, aliquots of 50 μl (approximately 18-20 nauplii) were pipette directly into a 24 well plates containing sea water (sw), −ve control (DMSO+sw), +ve control (emetine) or different concentrations of extracts (62.5-500 μg/ml). Assay was carried out in triplicate. The plates were sealed and incubated at 27-28° C. for 24 h. At the end of the 24-h incubation period, the content of each well was pipette into a watch glass individually. Survival was assessed by scoring the number of dead nauplii using a microscope. Once counts of dead nauplii had been taken, 0.5 ml of methanol was added to kill all remaining nauplii. The contents of each well were then recorded and result tabulated as (X/Y; where X=number dead and Y=number of dead and alive).
# [2] = system: B16F10 solid tumor; conditions: cited from earlier work
# [3] = system: angiogenesis; conditions: elicited by basic fibroblast growth factor; cited from earlier work
# [4] = system: tumor cell lines (K562, Raji, Jurkatt, CEM, MCF-7, MDA-MB-231, MD-MB-468, LNCaP, PC-3, HT-29, HCT-116, PANC-1, GL10-1); experiment: Tumor cell proliferation, oxygen biosensor; format: cell-based; conditions: DMSO, ethanol and PBS solutions, at least 24 hour incubation, FIGS. 6-8
# From the text: Referring to FIGS. 6, 7, and 8 the effect of snake extract on tumor cell proliferation utilizing the DMSO, ethanol, and PBS solutions, is respectively analyzed. The methodology used to analyze tumor cell proliferation was oxygen biosensor. With this methodology culture plates are coated with an oxygen sensitive fluorescent compound embedded in a gas-permeable and hydrophobic matrix permanently attached to the bottom of a multi-well plate. The amount of fluorescence correlates directly to the rate of oxygen consumption in the well, providing a signal that can be directly correlated to cell growth.
# In the experiments in FIGS. 1-8, the experiments were done with an effective amount of each analyzed target cancer cell lines dissolved within each snake extract solution measured as noted in each Figure for at least a 24 hour incubation period.
# The following cell lines were utilized in the tests listed above: • Leukemia/Lymphoma: K562, Raji, Jurkatt, CEM; • Breast Carcinoma MCF-7, MDA-MB-231, MD-MB-468; • Prostate Carcinoma LNCaP, PC-3; • Colorectal Carcinoma: HT-29, HCT-116; • Pancreatic Carcinoma: PANC-1; • Gliobastaoma: GL10-1.
# [5] = system: MDA-MB-435 tumor masses; conditions: cited from earlier work
# [6] = system: breast cancer cells; conditions: cited from earlier work
compound,measurement,setting,value
CC[C@H]1CN2CCc3cc(OC)c(OC)cc3[C@@H]2C[C@@H]1C[C@H]1NCCc2cc(OC)c(OC)cc21 [Emetine],% mortality,[1]; concentration 62.5 (extracts 62.5-500 μg/ml),58.2%
same,% mortality,[1]; concentration 125 (extracts 62.5-500 μg/ml),100%
same,% mortality,[1]; concentration 250 (extracts 62.5-500 μg/ml),100%
same,% mortality,[1]; concentration 500 (extracts 62.5-500 μg/ml),100%
Rhodostomin,survival,[2]; C57BL/6 mice,prolonged survival
same,tumor growth,[2]; subcutaneously inoculated B16F10 solid tumor,suppressed tumor growth
same,angiogenesis,[3],inhibit angiogenesis
CC[C@@]1(O)C(=O)OCc2c1cc1n(c2=O)Cc2cc3ccccc3nc2-1 [Camptothecin],inhibiting cell proliferation,[4],more effective at inhibiting cell proliferation of different cell lines than the snake powder extract
Contortrostatin,angiogenesis induced by breast cancer,[5]; immunohistochemical quantitation of vascular endothelial cells in tumor tissue,inhibiting angiogenesis
same,inhibited growth of tumor,[5]; injected daily at 5 microgram per mouse,74%
same,cytotoxicity to cancer cells,[6],not cytotoxic
same,proliferation of the breast cancer cells in vitro,[6],does not inhibit proliferation
